Laboratory results taken from ChEMBL document CHEMBL1141299, “Hologram QSAR model for the prediction of human oral bioavailability” (Bioorg Med Chem, 2007).

Test: Oral bioavailability in human
Settings: in vivo

First: CC(C)C[C@H]1C(=O)N2CCC[C@H]2[C@]2(O)O[C@](NC(=O)[C@@H]3C=C4c5cccc6[nH]c(Br)c(c56)C[C@H]4N(C)C3)(C(C)C)C(=O)N12 [BROMOCRIPTINE]
Second: CC(C)C[C@H]1C(=O)N2CCC[C@H]2[C@]2(O)O[C@@](C)(NC(=O)[C@@H]3CC4c5cccc6[nH]cc(c56)C[C@H]4N(C)C3)C(=O)N12 (some centres undefined) [DIHYDROERGOSINE]
The bioavailability of the first is lower: 4.5% for the first, 10% for the second.

First: O=C(O)CCCc1ccc(N(CCCl)CCCl)cc1 [CHLORAMBUCIL]
Second: O=P1(N(CCCl)CCCl)NCCCO1 (centres undefined) [CYCLOPHOSPHAMIDE ANHYDROUS]
The bioavailability of the first is higher: 87% for the first, 74% for the second.

First: CN/C(=N/CCSCc1nc[nH]c1C)NC#N [CIMETIDINE]
Second: CCN[C@@H](C)Cc1cccc(C(F)(F)F)c1 [DEXFENFLURAMINE]
The bioavailability of the first is lower: 60% for the first, 89% for the second.

First: C[N+]1(CC2CC2)[C@@H]2C[C@@H](OC(=O)[C@H](CO)c3ccccc3)C[C@H]1[C@@H]1O[C@@H]12.[Br-] (some centres undefined) [CIMETROPIUM BROMIDE]
Second: CC(C)N(CC[C@@](C(N)=O)(c1ccccc1)c1ccccn1)C(C)C [DISOPIRAMIDE]
The bioavailability of the first is lower: 2% for the first, 83% for the second.

Compared with `O=C1CN=C(c2ccccc2Cl)c2cc([N+](=O)[O-])ccc2N1` [CLONAZEPAM], `CN1CCN(C2=Nc3cc(Cl)ccc3Nc3ccccc32)CC1` [CLOZAPINE] is lower in bioavailability: 90% for the first, 55% for the second.

Going from `COc1ccc2c3c1O[C@H]1[C@@H](O)C=C[C@H]4[C@@H](C2)N(C)CC[C@@]341` [CODEINE] to `CN1CCN(C(=O)O[C@H]2c3nccnc3C(=O)N2c2ccc(Cl)cn2)CC1` [ESZOPICLONE], the bioavailability rises from 55% to 80%.

Compared with `C[C@H]1O[C@@H](O[C@H]2[C@@H](O)C[C@H](O[C@H]3[C@@H](O)C[C@H](O[C@H]4CC[C@@]5(C)[C@H](CC[C@@H]6[C@@H]5CC[C@]5(C)[C@@H](C7=CC(=O)OC7)CC[C@]65O)C4)O[C@@H]3C)O[C@@H]2C)C[C@H](O)[C@@H]1O` [DIGITOXIN], `C[C@]12C=CC(=O)N[C@@H]1CC[C@@H]1[C@@H]2CC[C@]2(C)[C@@H](C(=O)Nc3cc(C(F)(F)F)ccc3C(F)(F)F)CC[C@@H]12` [DUTASTERIDE] is lower in bioavailability: 88.5% for the first, 60% for the second.

Going from `CCCCCc1cc(O)c2c(c1)OC(C)(C)[C@@H]1CCC(C)=C[C@@H]21` [DRONABINOL] to `CC(C)n1c(/C=C/[C@H](O)C[C@H](O)CC(=O)O)c(-c2ccc(F)cc2)c2ccccc21` [FLUVASTATIN], the bioavailability rises from 15% to 24%.

First: CCC(=O)C(C[C@H](C)N(C)C)(c1ccccc1)c1ccccc1 [ESMETHADONE]
Second: OCCN1CCN(CCCN2c3ccccc3Sc3ccc(C(F)(F)F)cc32)CC1 [FLUPHENAZINE]
The bioavailability of the first is higher: 92% for the first, 2.7% for the second.

In the case of `NCC1(CC(=O)O)CCCCC1` [GABAPENTIN], the bioavailability was 60%.

Same assay, conditions: in vivo, F

First: Cc1[nH]cnc1CN1CCc2c(c3ccccc3n2C)C1=O [ALOSETRON]
Second: N/N=c1/cc2c(n[nH]1)CCN(C(=O)c1ccccc1)C2 [ENDRALAZINE]
The bioavailability of the first is lower: 55% for the first, 75% for the second.

Compared with `CC(C)(C#N)c1cc(Cn2cncn2)cc(C(C)(C)C#N)c1` [ANASTROZOLE], `CCOC(=O)C(C)(C)Oc1ccc(Cl)cc1` [CLOFIBRATE] is higher in bioavailability: 84% for the first, 95% for the second.

First: CC(=O)Oc1ccccc1C(=O)O [ASPIRIN]
Second: O=C(O)c1cc(-c2ccc(F)cc2F)ccc1O [DIFLUNISAL]
The bioavailability of the first is lower: 68% for the first, 100% for the second.

Going from `CNCC[C@@H](Oc1ccccc1C)c1ccccc1` [ATOMOXETINE] to `CCN(CC)CC(O)CNC(=O)c1c(OC)c2ccccc2n1-c1ccccc1` (centres undefined) [EPROXINDINE], the bioavailability rises from 63% to 70%.

Going from `O=C1C(O)=C([C@H]2CC[C@H](c3ccc(Cl)cc3)CC2)C(=O)c2ccccc21` [ATOVAQUONE] to `CC(=O)[C@]1(O)Cc2c(O)c3c(c(O)c2[C@@H](O[C@H]2C[C@H](N)[C@H](O)[C@H](C)O2)C1)C(=O)c1ccccc1C3=O` [IDARUBICIN], the bioavailability rises from 23% to 28%.

`COc1ccccc1Oc1c(NS(=O)(=O)c2ccc(C(C)(C)C)cc2)nc(-c2ncccn2)nc1OCCO` [BOSENTAN] and `COc1ccc(-c2nc(-c3ccc(F)cc3F)[nH]c2-c2ccc(OC)cc2)cc1` [FENFLUMIZOLE] are the same in bioavailability: 50% for the first, 50% for the second.

Going from `CCCC1O[C@@H]2C[C@H]3[C@@H]4CCC5=CC(=O)C=C[C@]5(C)[C@H]4[C@@H](O)C[C@]3(C)[C@]2(C(=O)CO)O1` (some centres undefined) [BUDESONIDE] to `CC1(C)O[C@@H]2C[C@H]3[C@@H]4C[C@H](F)C5=CC(=O)C=C[C@]5(C)[C@H]4[C@@H](O)C[C@]3(C)[C@]2(C(=O)CO)O1` [FLUNISOLIDE], the bioavailability rises from 11% to 20%.

Compared with `CCCCNc1cc(C(=O)O)cc(S(N)(=O)=O)c1Oc1ccccc1` [BUMETANIDE], `C[C@H](C(=O)O)c1ccc(-c2ccccc2)c(F)c1` [ESFLURBIPROFEN] is higher in bioavailability: 81% for the first, 92% for the second.

Going from `CS(=O)(=O)OCCCCOS(C)(=O)=O` [BUSULFAN] to `CC(C)NC[C@@H](O)c1ccc(NS(C)(=O)=O)cc1` [DEXSOTALOL], the bioavailability falls from 80% to 60%.

Going from `Cn1c(=O)c2c(ncn2C)n(C)c1=O` [CAFFEINE] to `CC(=O)OCC(CCn1cnc2cnc(N)nc21)COC(C)=O` [FAMCICLOVIR], the bioavailability falls from 100% to 77%.

Compared with `N[C@@H](C(=O)N[C@@H]1C(=O)N2C(C(=O)O)=C(Cl)CS[C@H]12)c1ccccc1` [CEFACLOR ANHYDROUS], `Cc1onc(-c2ccccc2Cl)c1C(=O)N[C@@H]1C(=O)N2[C@@H]1SC(C)(C)[C@@H]2C(=O)O` [CLOXACILLIN] is lower in bioavailability: 90% for the first, 37% for the second.

Compared with `Cc1nnc(SCC2=C(C(=O)O)N3C(=O)[C@@H](NC(=O)Cn4cnnn4)[C@H]3SC2)s1` [CEFAZOLIN], `Cc1onc(-c2c(F)cccc2Cl)c1C(=O)N[C@@H]1C(=O)N2[C@@H]1SC(C)(C)[C@@H]2C(=O)O` [FLOXACILLIN] is lower in bioavailability: 90% for the first, 49% for the second.

Going from `CCCCCCCCCCCCCCCC(=O)OC[C@@H](NC(=O)C(Cl)Cl)[C@H](O)c1ccc([N+](=O)[O-])cc1` [CHLORAMPHENICOL PALMITATE] to `O=C(N[C@H](CO)[C@H](O)c1ccc([N+](=O)[O-])cc1)C(Cl)Cl` [CHLORAMPHENICOL], the bioavailability falls from 80% to 69%.

Going from `CN(C)[C@@H]1C(O)=C(C(N)=O)C(=O)[C@@]2(O)C(O)=C3C(=O)c4c(O)ccc(Cl)c4[C@@](C)(O)[C@H]3C[C@@H]12` [CHLORTETRACYCLINE] to `C[C@H]1c2cccc(O)c2C(=O)C2=C(O)[C@]3(O)C(=O)C(C(N)=O)=C(O)[C@@H](N(C)C)[C@@H]3[C@@H](O)[C@@H]21.O` [DOXYCYCLINE], the bioavailability rises from 27.5% to 93%.

Going from `CC[C@H]1OC(=O)[C@H](C)[C@@H](O[C@H]2C[C@@](C)(OC)[C@@H](O)[C@H](C)O2)[C@H](C)[C@@H](O[C@@H]2O[C@H](C)C[C@H](N(C)C)[C@H]2O)[C@](C)(OC)C[C@@H](C)C(=O)[C@H](C)[C@@H](O)[C@]1(C)O` [CLARITHROMYCIN] to `CC[C@H]1OC(=O)[C@H](C)[C@@H](O[C@H]2C[C@@](C)(OC)[C@@H](O)[C@H](C)O2)[C@H](C)[C@@H](O[C@@H]2O[C@H](C)C[C@H](N(C)C)[C@H]2O)[C@](C)(O)C[C@@H](C)C(=O)[C@H](C)[C@@H](O)[C@]1(C)O` [ERYTHROMYCIN], the bioavailability falls from 50% to 35%.

Going from `O=C(O)[C@H]1/C(=C/CO)O[C@@H]2CC(=O)N21` [CLAVULANIC ACID] to `Nc1nc(=O)n([C@@H]2CS[C@H](CO)O2)cc1F` [EMTRICITABINE], the bioavailability rises from 75% to 93%.

Compared with `Clc1cccc(Cl)c1N=C1NCCN1` [CLONIDINE], `NS(=O)(=O)c1cc2c(cc1Cl)NCNS2(=O)=O` [HYDROCHLOROTHIAZIDE] is higher in bioavailability: 60% for the first, 71% for the second.

First: Nc1ccc(S(=O)(=O)c2ccc(N)cc2)cc1 [DAPSONE]
Second: COc1ccc(Cl)cc1C(=O)NCCc1ccc(S(=O)(=O)NC(=O)NC2CCCCC2)cc1 [GLYBURIDE]
The bioavailability of the first is lower: 93% for the first, 95% for the second.

Going from `CC(C)Nc1cccnc1N1CCN(C(=O)c2cc3cc(NS(C)(=O)=O)ccc3[nH]2)CC1` [DELAVIRDINE] to `COc1cc2nc(N3CCN(C(=O)C4COc5ccccc5O4)CC3)nc(N)c2cc1OC` (centres undefined) [DOXAZOSIN], the bioavailability falls from 96% to 65%.

Going from `CC(C)Cc1ccc([C@H](C)C(=O)O)cc1` [DEXIBUPROFEN] to `CSc1ccc(C(=O)c2[nH]c(=O)[nH]c2C)cc1` [ENOXIMONE], the bioavailability falls from 80% to 53%.

Compared with `C[C@@H]1COc2c(N3CCN(C)CC3)c(F)cc3c(=O)c(C(=O)O)cn1c23` [DEXTROFLOXACINE], `CO/N=C1\CN(c2nc3c(cc2F)c(=O)c(C(=O)O)cn3C2CC2)CC1CN` (centres undefined) [GEMIFLOXACIN] is lower in bioavailability: 97.5% for the first, 71% for the second.

First: C[C@H]1O[C@@H](O[C@H]2[C@@H](O)C[C@H](O[C@H]3[C@@H](O)C[C@H](O[C@H]4CC[C@@]5(C)[C@H](CC[C@@H]6[C@@H]5C[C@@H](O)[C@]5(C)[C@@H](C7=CC(=O)OC7)CC[C@]65O)C4)O[C@@H]3C)O[C@@H]2C)C[C@H](O)[C@@H]1O [DIGOXIN]
Second: C[C@@H]1C[C@H]2[C@@H]3C[C@H](F)C4=CC(=O)C=C[C@]4(C)[C@H]3[C@@H](O)C[C@]2(C)[C@H]1C(=O)CO [FLUOCORTOLONE]
The bioavailability of the first is higher: 95% for the first, 83.5% for the second.

Compared with `COc1ccc([C@@H]2Sc3ccccc3N(CCN(C)C)C(=O)[C@@H]2OC(C)=O)cc1` [DILTIAZEM], `CN(C)CCC[C@@]1(c2ccc(F)cc2)OCc2cc(C#N)ccc21` [ESCITALOPRAM] is higher in bioavailability: 40% for the first, 80% for the second.

Compared with `COc1ccc2nc([S@@+]([O-])Cc3ncc(C)c(OC)c3C)[nH]c2c1` [ESOMEPRAZOLE], `COc1cc2ncnc(Nc3ccc(F)c(Cl)c3)c2cc1OCCCN1CCOCC1` [GEFITINIB] is lower in bioavailability: 90% for the first, 60% for the second.

Going from `CCCCC(=O)O[C@H]1CC[C@H]2[C@@H]3CCc4cc(O)ccc4[C@H]3CC[C@]12C` [ESTRADIOL VALERATE] to `C#C[C@]1(O)CC[C@H]2[C@@H]3CCc4cc(O)ccc4[C@H]3CC[C@@]21C` [ETHINYL ESTRADIOL], the bioavailability rises from 3% to 40%.

Compared with `CC[C@@H](CO)NCCN[C@@H](CC)CO` [ETHAMBUTOL], `CCC1=C(C)CN(C(=O)NCCc2ccc(S(=O)(=O)NC(=O)N[C@H]3CC[C@H](C)CC3)cc2)C1=O` [GLIMEPIRIDE] is higher in bioavailability: 77% for the first, 100% for the second.

Going from `Nc1nc(=O)[nH]cc1F` [FLUCYTOSINE] to `O=C(CCCN1CCC(O)(c2ccc(Cl)cc2)CC1)c1ccc(F)cc1` [HALOPERIDOL], the bioavailability falls from 83.5% to 60%.

`C[C@@H]1C[C@H]2[C@@H]3C[C@H](F)C4=CC(=O)C=C[C@]4(C)[C@@]3(F)[C@@H](O)C[C@]2(C)[C@@]1(O)C(=O)SCF` [FLUTICASONE] gave a bioavailability of 1%.
